Results as given in patent US8901072B2, “Glycopeptide and lipoglycopeptide antibiotics with improved solubility” (The Medicines Company, priority 2009, dated 2014).
Converted amounts (≈) assume the structure as drawn.

Tests used:
[1] = Solubility in phosphate buffered saline; assay type: physicochemical; conditions: 10 mM phosphate buffered saline (0.138 M NaCl, 2.7 mM KCl), pH 7.4
Protocol: To a sample of the material of known mass were added known volumes of phosphate buffered saline until complete dissolution is observed. Suspensions were centrifuged for 5 min at 10000 rpm. […] Upon complete dissolution, the solution is diluted until the final concentration is 0.5 mg/mL to ensure that the material remains soluble over the entire range of concentrations.

[2] = test system: S. aureus ATCC 13709; assay: In vitro antibacterial susceptibility (MIC, broth microdilution); assay type: cell-based; conditions: for MIC against S. aureus ATCC 13709, CAMHB: cation-adjusted Mueller-Hinton broth, 37° C., 18 h; for Antibacterial activity compared with oritavancin 5: deduced from the MIC data of Table 2
Protocol: Susceptibility of S. aureus strain ATCC13709 to oritavancin (5) and synthesized compounds was determined following the guidelines set by the Clinical and Laboratory Standards Institute (formerly the National Committee for Clinical Laboratory Standards) (M26-A). Compounds were serially diluted two-fold in either DMSO (Oritavancin 5) or in PBS and transferred to cation-adjusted Mueller Hinton broth (CAMHB; Becton Dickinson). 50 μL of compounds diluted in CAMHB was mixed with 100 μL of bacteria diluted in CAMHB in 96-well microtiter plates. The final number of micro-organisms in the assay was 5×10^5 c.f.u. per mL and the final concentration of DMSO in the assay, if present, was 1.25%. All solutions may contain 0.002% Tween as indicated. Assays were set up in duplicate and incubated at 37° C. for 18 h. The concentration of compound that inhibited visible growth was reported as the minimum inhibitory concentration (MIC).

[3] = test system: S. aureus strain ATCC13709; assay: Neutropenic mouse thigh infection model; assay type: in vivo, mice; conditions: for Recovered bacterial titers per thigh, 1 mg/kg / Recovered bacterial titers per thigh, 10 mg/kg / Recovered bacterial titers per thigh, 40 mg/kg: neutropenic mice, 24 h postinfection; for Recovered bacterial titers per thigh, 1 mg/kg: 1 mg/kg one hour after inoculation; for Recovered bacterial titers per thigh, 10 mg/kg: 10 mg/kg one hour after inoculation; for Recovered bacterial titers per thigh, 40 mg/kg: 40 mg/kg one hour after inoculation
Protocol: The susceptibility of S. aureus strain ATCC13709 to oritavancin (5) and selected synthesized compounds in vivo was evaluated with the well accepted neutropenic mouse thigh infection model (Craig, W. A. et al. Journal of Antimicrobial Chemotherapy (1991), 27 (Suppl. C):29-40). Mice were made neutropenic by treatment with cyclophosphamide (150 and 100 mg/kg of body weight administered intraperitoneally 4 days and 1 day prior to infection). Mice were anesthetized briefly with approximately 4% isoflurane just prior to inoculation. The bacterial suspension (0.1 mL) was injected intramuscularly into each thigh (approximately 10^5 colony forming units (CFU)/thigh). The selected agents were administered in 10% (w/w) β-hydroxypropylcyclodextrin in water at a concentration of 10 mg/mL one hour following bacterial inoculation. The animals were humanely sacrificed by CO2 asphyxiation 24 h postinfection. The entire thigh muscle mass including the bone was homogenized and diluted in 0.9% saline and aliquots were plated on Brain-Heart Infusion agar. Following overnight incubation at 37° C., bacteria were enumerated for each thigh and expressed as log10 CFU per thigh. This was performed over three independent experiments and oritavancin (5) was used as a comparator in each.

SMILES	Solubility (mg/mL) PBS [1]	MIC against S. aureus ATCC 13709, CAMHB + 0.002% tween [2] [µg/mL]	MIC against S. aureus ATCC 13709, CAMHB + 50% human serum [2] [µg/mL]	MIC against S. aureus ATCC 13709, CAMHB + 50% mouse serum [2] [µg/mL]	MIC against S. aureus ATCC 13709, CAMHB + 50% rat serum [2] [µg/mL]	MIC against S. aureus ATCC 13709, CAMHB [2] [µg/mL]	Antibacterial activity compared with oritavancin 5 [2]	In vivo antibacterial efficacy compared with oritavancin ([3]; deduced from the data of Table 3)	Recovered bacterial titers per thigh, 1 mg/kg [3] [Log10 CFU/thigh]	Recovered bacterial titers per thigh, 10 mg/kg [3] [Log10 CFU/thigh]	Recovered bacterial titers per thigh, 40 mg/kg [3] [Log10 CFU/thigh]
CC(C)CC(C(=O)NC1C(=O)NC(CC(N)=O)C(=O)NC2C(=O)NC3C(=O)NC(C(=O)NC(C(=O)O)c4cc(O)cc(O)c4-c4cc3ccc4O)C(OC3CC(C)(N)C(O)C(C)O3)c3ccc(c(Cl)c3)Oc3cc2cc(c3OC2OC(CO)C(O)C(O)C2OC2CC(C)(NCc3ccc(-c4ccc(Cl)cc4)cc3)C(O)C(C)O2)Oc2ccc(cc2Cl)C1O)N(C)C(=O)CNC(=O)C(N)CCCCN (centres unmarked) [Compound 61]	<0.5 mg/mL	0.25	0.25	1	0.5	2 (≈ 1.01 µM)	within an order of magnitude of that of oritavancin 5	–	–	–	–
CNC(CC(C)C)C(=O)NC1C(=O)NC(CC(N)=O)C(=O)NC2C(=O)NC3C(=O)NC(C(=O)NC(C(=O)OCC(=O)NCCCNCCCN)c4cc(O)cc(O)c4-c4cc3ccc4O)C(OC3CC(C)(N)C(O)C(C)O3)c3ccc(c(Cl)c3)Oc3cc2cc(c3OC2OC(CO)C(O)C(O)C2OC2CC(C)(NCc3ccc(-c4ccc(Cl)cc4)cc3)C(O)C(C)O2)Oc2ccc(cc2Cl)C1O (centres unmarked) [Compound 66]	>100 mg/mL	0.25	0.125	1	0.125	2 (≈ 1.02 µM)	within an order of magnitude of that of oritavancin 5	within the same order of magnitude than oritavancin itself	8.16 ± 0.49	3.96 ± 1.74	4.04 ± 0.51
CC(C)CC(C(=O)NC1C(=O)NC(CC(N)=O)C(=O)NC2C(=O)NC3C(=O)NC(C(=O)NC(C(=O)O)c4cc(O)cc(O)c4-c4cc3ccc4O)C(OC3CC(C)(N)C(O)C(C)O3)c3ccc(c(Cl)c3)Oc3cc2cc(c3OC2OC(CO)C(O)C(O)C2OC2CC(C)(NCc3ccc(-c4ccc(Cl)cc4)cc3)C(O)C(C)O2)Oc2ccc(cc2Cl)C1O)N(C)C(=O)OCc1ccc(OP(=O)(O)O)cc1 (centres unmarked) [Compound 70]	8 mg/mL (≈ 3950 µM)	1	32	32	>32	2 (≈ 0.989 µM)	weaker activities	–	–	–	–
CC(C)CC(C(=O)NC1C(=O)NC(CC(N)=O)C(=O)NC2C(=O)NC3C(=O)NC(C(=O)NC(C(=O)O)c4cc(O)cc(O)c4-c4cc3ccc4O)C(OC3CC(C)(N)C(O)C(C)O3)c3ccc(c(Cl)c3)Oc3cc2cc(c3OC2OC(CO)C(O)C(O)C2OC2CC(C)(NCc3ccc(-c4ccc(Cl)cc4)cc3)C(O)C(C)O2)Oc2ccc(cc2Cl)C1O)N(C)C(=O)OCOC(=O)CCC(=O)NC(CCC(=O)O)(CCC(=O)O)CCC(=O)O (centres unmarked) [Compound 78]	4 mg/mL (≈ 1820 µM)	1	16	32	–	8 (≈ 3.64 µM)	weaker activities	–	–	–	–
CC(C)CC(C(=O)NC1C(=O)NC(CC(N)=O)C(=O)NC2C(=O)NC3C(=O)NC(C(=O)NC(C(=O)O)c4cc(O)cc(O)c4-c4cc3ccc4O)C(OC3CC(C)(N)C(O)C(C)O3)c3ccc(c(Cl)c3)Oc3cc2cc(c3OC2OC(CO)C(O)C(O)C2OC2CC(C)(NCc3ccc(-c4ccc(Cl)cc4)cc3)C(O)C(C)O2)Oc2ccc(cc2Cl)C1O)N(C)C(=O)OCOC(=O)CCP(=O)(O)O (centres unmarked) [Compound 84]	0.5 to 1 mg/mL	0.125	0.5	2	–	1 (≈ 0.499 µM)	within an order of magnitude of that of oritavancin 5	–	–	–	–
CNC(CC(C)C)C(=O)NC1C(=O)NC(CC(N)=O)C(=O)NC2C(=O)NC3C(=O)NC(C(=O)NC(C(=O)OCC(=O)NCCN)c4cc(O)cc(O)c4-c4cc3ccc4O)C(OC3CC(C)(N)C(O)C(C)O3)c3ccc(c(Cl)c3)Oc3cc2cc(c3OC2OC(CO)C(O)C(O)C2OC2CC(C)(NCc3ccc(-c4ccc(Cl)cc4)cc3)C(O)C(C)O2)Oc2ccc(cc2Cl)C1O (centres unmarked) [Compound 90a]	≧100 mg/mL	0.5	0.25	0.5	–	1 (≈ 0.528 µM)	within an order of magnitude of that of oritavancin 5	–	8.38 ± 0.23	6.13 ± 2.53	5.27 ± 2.66
CNC(CC(C)C)C(=O)NC1C(=O)NC(CC(N)=O)C(=O)NC2C(=O)NC3C(=O)NC(C(=O)NC(C(=O)OCC(=O)NCCCN)c4cc(O)cc(O)c4-c4cc3ccc4O)C(OC3CC(C)(N)C(O)C(C)O3)c3ccc(c(Cl)c3)Oc3cc2cc(c3OC2OC(CO)C(O)C(O)C2OC2CC(C)(NCc3ccc(-c4ccc(Cl)cc4)cc3)C(O)C(C)O2)Oc2ccc(cc2Cl)C1O (centres unmarked) [Compound 90b]	≧100 mg/mL	0.5	0.25	0.5	–	1 (≈ 0.524 µM)	within an order of magnitude of that of oritavancin 5	–	8.61 ± 0.16	6.44 ± 1.82	2.97 ± 2.35
CNC(CC(C)C)C(=O)NC1C(=O)NC(CC(N)=O)C(=O)NC2C(=O)NC3C(=O)NC(C(=O)NC(C(=O)OCC(=O)NCCCCN)c4cc(O)cc(O)c4-c4cc3ccc4O)C(OC3CC(C)(N)C(O)C(C)O3)c3ccc(c(Cl)c3)Oc3cc2cc(c3OC2OC(CO)C(O)C(O)C2OC2CC(C)(NCc3ccc(-c4ccc(Cl)cc4)cc3)C(O)C(C)O2)Oc2ccc(cc2Cl)C1O (centres unmarked) [Compound 90c]	<1.6 mg/mL	0.25	0.125	0.5	–	1 (≈ 0.52 µM)	within an order of magnitude of that of oritavancin 5	–	–	–	–
CNC(CC(C)C)C(=O)NC1C(=O)NC(CC(N)=O)C(=O)NC2C(=O)NC3C(=O)NC(C(=O)NC(C(=O)OCC(=O)N(C)CCN(C)C)c4cc(O)cc(O)c4-c4cc3ccc4O)C(OC3CC(C)(N)C(O)C(C)O3)c3ccc(c(Cl)c3)Oc3cc2cc(c3OC2OC(CO)C(O)C(O)C2OC2CC(C)(NCc3ccc(-c4ccc(Cl)cc4)cc3)C(O)C(C)O2)Oc2ccc(cc2Cl)C1O (centres unmarked) [Compound 103]	≧100 mg/mL	0.25	0.25	0.5	0.125	2 (≈ 1.03 µM)	within an order of magnitude of that of oritavancin 5	–	–	–	–
